This is an account of results in US20240270751A1, “Pyrazolopyridinone Compounds” (BeiGene Ltd., priority 2021, published 2024).

Where two headings read alike, the source gives them in different places.

One assay concerns the target DGKζ (Homo sapiens (Human), UniProt Q13574). In words: Biochemical DGK IC50 assay, DGKζ ADP-Glo assay. Particulars: 0.5 nM enzyme, 140 μM ATP, 80 μM DAG. In short, it runs like this:
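Full-length human DGKζ, His-TEV tagged and purified from baculovirus-infected Sf9 cells, assayed by ADP-Glo with DAG/PS lipid micelle substrate prepared in 25 mM HEPES pH 7.0 with octyl glucoside. Final compound concentrations spanned 1.55–10000 nM or 23.3–150000 nM.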
On the technique in general: In ADP-Glo the light output rises with the ADP produced.

A further assay deals with DGKα (Homo sapiens (Human), UniProt P23743). Kind of assay: Biochemical DGK IC50 assay, DGKα ADP-Glo assay. Particulars: 7.5 nM enzyme, 140 μM ATP, 80 μM DAG. In short, it runs like this: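 ADP-Glo read-out with full-length DGKα on DAG/PS lipid micelle substrate in 25 mM HEPES pH 7.0, 0.5 mM EDTA, 160 mM octyl β-D-glucopyranoside. Compound final concentrations spanned 1.55˜10000 nM or 23.3˜150000 nM.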

Setting [1] is: read-out: DGKζ ADP-Glo assay IC50.

DGKα, sequence (P23743 whole entry): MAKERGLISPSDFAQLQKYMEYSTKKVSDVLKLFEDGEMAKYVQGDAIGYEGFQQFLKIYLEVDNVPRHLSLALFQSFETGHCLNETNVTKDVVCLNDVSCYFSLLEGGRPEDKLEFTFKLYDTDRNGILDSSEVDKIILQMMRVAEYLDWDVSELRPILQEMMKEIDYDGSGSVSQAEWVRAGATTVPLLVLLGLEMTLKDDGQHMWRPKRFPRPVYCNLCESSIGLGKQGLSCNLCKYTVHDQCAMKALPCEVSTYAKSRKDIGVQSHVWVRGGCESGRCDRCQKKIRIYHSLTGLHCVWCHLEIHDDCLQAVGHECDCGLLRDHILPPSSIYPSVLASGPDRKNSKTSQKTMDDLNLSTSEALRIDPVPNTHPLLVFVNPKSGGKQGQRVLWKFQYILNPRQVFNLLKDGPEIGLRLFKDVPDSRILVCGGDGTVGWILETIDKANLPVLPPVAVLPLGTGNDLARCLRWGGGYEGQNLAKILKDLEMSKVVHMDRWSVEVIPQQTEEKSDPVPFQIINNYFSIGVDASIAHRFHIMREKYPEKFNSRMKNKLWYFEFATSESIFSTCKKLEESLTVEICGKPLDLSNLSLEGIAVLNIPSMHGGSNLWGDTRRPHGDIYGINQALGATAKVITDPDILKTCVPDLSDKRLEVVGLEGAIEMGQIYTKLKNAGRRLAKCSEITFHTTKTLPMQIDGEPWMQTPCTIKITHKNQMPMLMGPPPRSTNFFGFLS
DGKζ, sequence (Q13574 other isoform, or with tags, fused parts or gaps): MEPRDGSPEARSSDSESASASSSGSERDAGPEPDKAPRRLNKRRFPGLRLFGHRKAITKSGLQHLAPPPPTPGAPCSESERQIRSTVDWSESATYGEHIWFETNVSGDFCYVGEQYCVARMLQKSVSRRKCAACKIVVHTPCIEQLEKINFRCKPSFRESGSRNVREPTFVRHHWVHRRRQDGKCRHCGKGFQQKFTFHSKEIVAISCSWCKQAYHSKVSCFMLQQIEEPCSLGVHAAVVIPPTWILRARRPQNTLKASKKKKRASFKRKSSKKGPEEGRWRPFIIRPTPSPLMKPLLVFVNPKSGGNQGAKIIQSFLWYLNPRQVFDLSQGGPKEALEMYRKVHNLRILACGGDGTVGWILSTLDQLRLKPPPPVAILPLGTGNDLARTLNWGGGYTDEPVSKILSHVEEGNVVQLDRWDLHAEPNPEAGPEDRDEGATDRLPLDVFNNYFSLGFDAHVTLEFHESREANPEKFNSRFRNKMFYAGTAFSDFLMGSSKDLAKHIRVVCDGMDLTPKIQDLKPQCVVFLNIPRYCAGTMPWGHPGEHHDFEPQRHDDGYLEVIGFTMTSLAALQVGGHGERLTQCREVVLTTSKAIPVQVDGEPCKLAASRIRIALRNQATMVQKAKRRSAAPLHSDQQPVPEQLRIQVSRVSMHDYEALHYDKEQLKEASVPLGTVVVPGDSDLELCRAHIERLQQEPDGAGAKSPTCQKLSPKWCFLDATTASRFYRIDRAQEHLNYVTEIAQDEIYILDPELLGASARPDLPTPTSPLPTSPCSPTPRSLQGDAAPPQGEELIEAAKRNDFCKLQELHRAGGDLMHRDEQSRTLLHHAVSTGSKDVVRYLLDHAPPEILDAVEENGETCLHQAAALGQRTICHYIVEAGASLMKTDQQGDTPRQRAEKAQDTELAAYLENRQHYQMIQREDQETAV

The term IC50 denotes the concentration needed to halve the response being measured. As to `CC[C@H]1CN(C(C)c2nc3cc(C(F)(F)F)ccc3n2CC)[C@H](CC)CN1c1cc(=O)n(C)c2cn(CC#N)nc12` (single isomer, unassigned) [Compound A203a], the figures for the IC50 on DGKζ (setting [1]) and against DGKα were 2210 nM and greater than 10 µM, respectively.

Regarding `CC[C@H]1CN(C(C)c2ccc(CN3CCOCC3)cc2)[C@H](CC)CN1c1cc(=O)n(C)c2cn(CC#N)nc12` (single isomer, unassigned) [Compound A383a], the IC50 stood at 158 nM at DGKζ (setting [1]) and 0.245 µM against DGKα.

`CC[C@H]1CN(C(C)c2nccn2CC)[C@H](CC)CN1c1cc(=O)n(C)c2cn(CC#N)nc12` (stereo partly shown) [Compound A174]: the 50% inhibitory concentration (IC50) is 57900 nM at DGKζ (setting [1]) and 105 µM on DGKα.

As for `CC[C@H]1CN(C(C)c2ccc3nccnc3c2)[C@H](CC)CN1c1cc(=O)n(C)c2cn(CC#N)nc12` (single isomer, unassigned) [Compound A28a], the IC50 at DGKζ (setting [1]) was 7.6 nM; at DGKα it was 0.49 µM.

As for `C[C@@H](c1ccc2nccnc2c1)N1CCN(c2cc(=O)n(C)c3cn(CC#N)nc23)CC1C(N)=O` (single isomer, unassigned) [Compound A198a], the half-maximal inhibitory concentration (IC50) at DGKζ (setting [1]) was greater than 10000 nM; on DGKα, greater than 10 µM.

Take `CC[C@H]1CN(C(C)c2ccc(C(F)F)nc2)[C@H](CC)CN1c1cc(=O)n(C)c2cn(CC#N)nc12` (single isomer, unassigned) [Compound A351a]: the IC50 was determined as 167 nM at DGKζ (setting [1]) and 0.274 µM against DGKα.

`CC[C@H]1CN(C(C)c2ccc3c(n2)OCCN3C)[C@H](CC)CN1c1cc(=O)n(C)c2cn(CC#N)nc12` (stereo partly drawn) [Compound A166, 2-(7-((2S,5R)-2,5-diethyl-4-(1-(1-methyl-2,3-dihydro-1H-pyrido[2,3-b][1,4]oxazin-6-yl)ethyl)piperazin-1-yl)-4-methyl-5-oxo-4,5-dihydro-2H-pyrazolo[4,3-b]pyridin-2-yl)acetonitrile]: the IC50 on DGKζ (setting [1]) is 2380 nM; on DGKα, greater than 10 µM.

With `CC#CCn1cc2c(n1)c(N1C[C@@H](CC)N(C(C)c3nc4ccccc4n3CC)C[C@@H]1CC)cc(=O)n2C` (stereo partly shown) [Compound A186], the results for the IC50 on DGKζ (setting [1]) and at DGKα were 59 nM and 6.37 µM, respectively.

Consider `CC[C@H]1CN(C(C)c2cnn(CC)c2C(F)(F)F)[C@H](CC)CN1c1cc(=O)n(C)c2cn(CC#N)nc12` (single isomer, unassigned) [Compound A119b], for which the IC50 was 964 nM at DGKζ (setting [1]) and 4.56 µM on DGKα.

Take `CCc1c(C(C)N2C[C@H](CC)N(c3cc(=O)n(C)c4cn(CC#N)nc34)C[C@H]2CC)cnn1C` (single isomer, unassigned) [Compound A213a]: the concentration for half-maximal inhibition (IC50) at DGKζ (setting [1]) was 1360 nM; at DGKα it was greater than 10 µM.

With `CC[C@@H]1CN(c2c(C#N)c(=O)[nH]c3cn(CC#N)nc23)[C@@H](C)CN1C(C)c1ccc2nccnc2c1` (single isomer, unassigned) [Compound A200a], the concentration for half-maximal inhibition (IC50) on DGKζ (setting [1]) worked out at 102 nM; against DGKα, 7.08 µM.

For `CC(c1ccc(F)cc1CC#N)N1C[C@H](C)N(c2cc(=O)n(C)c3cn(CC#N)nc23)C[C@H]1C` (single isomer, unassigned) [Compound A287a], the IC50 is 9680 nM at DGKζ (setting [1]) and greater than 10 µM against DGKα.

With `CC(c1ccc(F)cn1)N1C[C@H](C)N(c2cc(=O)n(C)c3cn(CC#N)nc23)C[C@H]1C` (stereo partly shown) [Compound A33], the IC50 on DGKζ (setting [1]) was greater than 10000 nM; against DGKα, 0.16 µM.

For `COc1c(N2C[C@@H](C)N([C@@H](C)c3ccc4nccnc4c3)C[C@@H]2C)c2nn(CC#N)cc2n(C)c1=O` [Compound A274, 2-(7-((2S,5R)-2,5-dimethyl-4-((S)-1-(quinoxalin-6-yl)ethyl)piperazin-1-yl)-6-methoxy-4-methyl-5-oxo-4,5-dihydro-2H-pyrazolo[4,3-b]pyridin-2-yl)acetonitrile], the IC50 at DGKζ (setting [1]) is greater than 10000 nM; at DGKα, greater than 10 µM.

With `CC(c1ccc2nccnc2c1)N1CCN(c2cc(=O)n(C)c3cn(CC#N)nc23)CC1CO` (stereo not shown) [Compound A184], the IC50 is 6010 nM on DGKζ (setting [1]) and greater than 10 µM at DGKα.

`CC[C@H]1CN(C(C)c2ccc(F)cc2C(C)O)[C@H](CC)CN1c1cc(=O)n(C)c2cn(CC#N)nc12` (stereo partly shown) [Compound A188]: the IC50 is 786 nM at DGKζ (setting [1]) and greater than 10 µM against DGKα.

Consider `CC[C@H]1CN(C(C)c2ccc(C(F)(F)F)cn2)[C@H](CC)CN1c1cc(=O)n(C)c2cn(CC#N)nc12` (single isomer, unassigned) [Compound A348a], for which the IC50 was found to be 3880 nM on DGKζ (setting [1]) and 0.177 µM at DGKα.

Take `CC#CCn1cc2c(n1)c(N1C[C@@H](C)N(C(C)c3ccc4c(c3)OC(F)(F)O4)C[C@@H]1C)cc(=O)n2C` (stereo partly shown) [Compound A391]: the IC50 on DGKζ (setting [1]) was 1650 nM; at DGKα it was 1.18 µM.

Turning to `[2H]c1nc2ccc(C(C)N3C[C@H](C)N(c4cc(=O)n(C)c5cn(CC#N)nc45)C[C@H]3C)cc2nc1[2H]` (stereo partly drawn) [Compound A268, 2-(7-((2S,5R)-2,5-dimethyl-4-(1-(quinoxalin-6-yl-2,3-d2)ethyl)piperazin-1-yl)-4-methyl-5-oxo-4,5-dihydro-2H-pyrazolo[4,3-b]pyridin-2-yl)acetonitrile], the IC50 against DGKζ (DGKζ ADP-Glo assay IC50(nM)) was determined as 133 nM; against DGKα, 16.3 µM.

In the case of `Cc1nc2c(C(C)N3C[C@H](C)N(c4cc(=O)n(C)c5cn(CC#N)nc45)C[C@H]3C)cccc2o1` (stereo partly shown) [Compound A45], the IC50 was 1420 nM at DGKζ (setting [1]) and greater than 10 µM at DGKα.

Consider `CC(c1ccc2nccnc2c1)N1C[C@H](C)N(c2cc(=O)n(C)c3cn(CC#N)nc23)C[C@H]1CO` (stereo partly drawn) [Compound A99, 2-(7-((2S,5S)-5-(hydroxymethyl)-2-methyl-4-(1-(quinoxalin-6-yl)ethyl)piperazin-1-yl)-4-methyl-5-oxo-4,5-dihydro-2H-pyrazolo[4,3-b]pyridin-2-yl)acetonitrile], for which the concentration for half-maximal inhibition (IC50) at DGKζ (setting [1]) is 2790 nM; against DGKα, greater than 10 µM.

Turning to `CC[C@H]1CN(C(C)c2ccc(C(F)(F)F)cc2)[C@H](CC)CN1c1cc(=O)n(C)c2cn(CC#N)nc12` (single isomer, unassigned) [Compound A103b], the IC50 at DGKζ (setting [1]) was determined as 2690 nM; on DGKα it was 0.809 µM.

Take `CC[C@H]1CN(C(C)c2ccc(C)cc2F)[C@H](CC)CN1c1cc(=O)n(C)c2cn(CC#N)nc12` (stereo partly shown) [Compound A340]: the concentration for half-maximal inhibition (IC50) amounted to 248 nM on DGKζ (setting [1]) and 0.485 µM against DGKα.

As for `CC[C@H]1CN(C(C)c2ccc(F)nc2)[C@H](CC)CN1c1cc(=O)n(C)c2cn(CC#N)nc12` (single isomer, unassigned) [Compound A353b], the results for the IC50 on DGKζ (setting [1]) and against DGKα were 2490 nM and 0.797 µM, respectively.

For the compound `CC[C@@H]1CN(c2cc(=O)n(C)c3cn(CC#N)nc23)[C@@H](C)CN1C(C)c1ccc2nccnc2c1` (single isomer, unassigned) [Compound A97b], the figures for the 50% inhibitory concentration (IC50) on DGKζ (setting [1]) and against DGKα were 1610 nM and 5.12 µM, respectively.

In the case of `CC[C@@H]1CN(c2cc(=O)n(C)c3cn(CC#N)nc23)[C@@H](CC)CN1Cc1ccc(F)cc1C(F)(F)F` [Compound A241], the IC50 was determined as 270 nM at DGKζ (setting [1]) and 6.43 µM against DGKα.

For `CC[C@H]1CN(C(C)c2ccc(F)cc2OC(C)C)[C@H](CC)CN1c1cc(=O)n(C)c2cn(CC#N)nc12` (stereo partly shown) [Compound A142], the IC50 on DGKζ (setting [1]) came to 1220 nM; against DGKα it was 6.58 µM.

As for `CC[C@@H]1CN(c2cc(=O)n(C)c3cn(CC(F)F)nc23)[C@@H](C)CN1C(C)c1ccc2nccnc2c1` (single isomer, unassigned) [Compound A222a], the IC50 is 452 nM at DGKζ (setting [1]) and 5.25 µM against DGKα.

With `C[C@@H](c1ccc2nccnc2c1)N1CC2CCC1CN2c1cc(=O)n(C)c2cn(CC#N)nc12` (stereo partly shown) [Compound A125a], the results for the IC50 on DGKζ (setting [1]) and against DGKα were greater than 10000 nM and greater than 10 µM, respectively.

For the compound `CC(c1ccc(F)cc1CC#N)N1C[C@H](C)N(c2cc(=O)n(C)c3cn(CC#N)nc23)C[C@H]1C` (single isomer, unassigned) [Compound A287b], the figures for the IC50 on DGKζ (setting [1]) and against DGKα were 567 nM and greater than 10 µM, respectively.

Regarding `CC[C@H]1CN(C(C)c2cnc(Cl)cc2C(F)(F)F)[C@H](CC)CN1c1cc(=O)n(C)c2cn(CC#N)nc12` (stereo partly shown) [Compound A226], the IC50 is 2290 nM at DGKζ (setting [1]) and 8.43 µM at DGKα.

Regarding `CC(c1ccc(F)cc1OC(F)F)N1C[C@H](C)N(c2cc(=O)n(C)c3cn(CC#N)nc23)C[C@H]1C` (stereo partly drawn) [Compound A247, 2-(7-((2S,5R)-4-(1-(2-(difluoromethoxy)-4-fluorophenyl)ethyl)-2,5-dimethylpiperazin-1-yl)-4-methyl-5-oxo-4,5-dihydro-2H-pyrazolo[4,3-b]pyridin-2-yl)acetonitrile], the IC50 at DGKζ (setting [1]) is 283 nM; against DGKα, greater than 10 µM.

Turning to `Cc1cnc2ccc([C@H](C)N3C[C@H](C)N(c4cc(=O)n(C)c5cn(CC=C(F)F)nc45)C[C@H]3C)cc2n1` [Compound A303, 2-(3,3-difluoroallyl)-7-((2S,5R)-2,5-dimethyl-4-((S)-1-(3-methylquinoxalin-6-yl)ethyl)piperazin-1-yl)-4-methyl-2,4-dihydro-5H-pyrazolo[4,3-b]pyridin-5-one], the IC50 on DGKζ (setting [1]) was determined as 19 nM; on DGKα, 102 µM.

On to `CC[C@H]1CN(C(C)c2ccncc2)[C@H](CC)CN1c1cc(=O)n(C)c2cn(CC#N)nc12` (stereo partly shown) [Compound A86], for which the IC50 at DGKζ (setting [1]) was 1940 nM; against DGKα, 0.022 µM.

As for `CC[C@H]1CN(C(C)c2nc3ccccc3s2)[C@H](CC)CN1c1cc(=O)n(C)c2cn(CC#N)nc12` (stereo partly drawn) [Compound A52, 2-(7-((2S,5R)-4-(1-(benzo[d]thiazol-2-yl)ethyl)-2,5-diethylpiperazin-1-yl)-4-methyl-5-oxo-4,5-dihydro-2H-pyrazolo[4,3-b]pyridin-2-yl)acetonitrile], the results for the IC50 at DGKζ (setting [1]) and at DGKα were 72 nM and 0.031 µM, respectively.
